pIC50: −log10 of the molar value. Where two headings read alike, the source gives them in different places.
What was measured:
[1] = Plasma Stability Assay (Example A3), rat plasma; type: in vitro ADME; conditions: prodrug remaining, 10 μM, 37° C.
From the text: The data is represented in the table below.

in vivo = type: in vivo, mouse; conditions: for half-life / C0 / clearance / Vd: iv, 2 mg/kg; for C0: back extrapolated; for clearance: flagged NR (not reportable, very high vs liver blood flow); for Vd: read-out: Vss
Method: Total fifteen male mice were used in this study with n=3 mice/time point with sparse sampling study design. Animals were administered through intravenous route with solution formulation of 323 at 2 mg/kg dose.
The extraction procedure for plasma/brain samples and the spiked plasma/brain calibration standards were identical (PMSF Stabilized Plasma and Brain used for Preparation of calibration standards): A 20 μL of study sample plasma/brain or spiked plasma/brain calibration standard was added to individual pre-labeled micro-centrifuge tubes followed by 200 μL of internal standard prepared in acetonitrile (Rosuvastatin+Cetrizine, 50 ng/mL) was added except for blank, where 200 μL of acetonitrile was added. Samples were vortexed for 5 minutes. Samples were centrifuged for 10 minutes at a speed of 4000 rpm at 4° C. Following centrifugation, 200 μL of clear supernatant was transferred in 96 well plates and analyzed using LC-MS/MS.
Brain samples were diluted (1-part of tissue: 2-part of buffer) and homogenized. The homogenate was submitted for bioanalysis and the concentrations (ng/mL) received were corrected with dilution factor (3×) and the final reported concentrations were represented in ng/g.
The plasma and brain concentration-time data of 323 and 001 were used for the pharmacokinetic analysis.
LLOQ: 323: 1.02 ng/mL for plasma and brain 001: 1.01 ng/mL for plasma and brain

[2] = Hydrolysis Assay - Condition 1 (SGF); type: physicochemical; conditions: SGF with pepsin pH 1.5, 37° C., 0.5 mM
Method: 50 μL of compound (10 mM) in DMSO was diluted into 950 μL of Simulated Gastric Fluid (SGF) with pepsin (pH 1.5) to a final concentration of 0.5 mM. The hydrolysis kinetics were conducted at 37° C. and measured by LCMS at a certain time interval.
(§1) The corresponding LCMS chromatogram were recorded and the conversions were calculated by integration of each peak.
(§2) • 1) LCMS spectra were obtained using Agilent 1200G1956A or SHIMADZU LCMS-2020. Standard LCMS conditions were as follows (running time 1.55 minutes): • Acidic condition: Mobile Phase A: 0.0375% TFA in water (v/v). Mobile Phase B: 0.01875% TFA in acetonitrile (v/v); Column: Kinetex EVO C18 30*2.1 mm, 5 μm. • Basic condition: Mobile Phase A: 0.025% NH3·H2O in water (v/v). Mobile Phase B: Acetonitrile; Column: Kinetex EVO C18 2.1×30 mm, 5 μm. • 2) Conversion (%)=peak area 1/(peak area 1+peak area 2)*100%, peak area 1 is the integration of hydrolyzed product, peak area 2 is the integration of starting material.

SERT = SERT (Homo sapiens (Human), UniProt P31645); experiment: SERT Inhibition Assay (Neurotransmitter Transporter Fluorescence assay, stable 5HTT cells); type: cell-based
Method: SERT inhibition was measured using a Neruotransmitter Transportation Fluorescence assay. Briefly, stable 5HTT cells were prepared in a 384 microwell plate. Compounds were prepared by in assay buffer (20 mM HEPES, 0.1% BSA). The compounds were added to the plated cells and incubated for 30 minutes at 37° C. 25 μL of dye solution (Molecular Devices Neurotransmitter Transporter Uptake Assay Kit) was added per well and incubated for 30 minutes at 37° C. The plates were then read on a plate reader.

[3] = Metabolic Stability in Human Hepatocytes; type: in vitro ADME; conditions: cryopreserved human hepatocytes, 37° C.
Method: A 2.5 uL aliquot of 100 μM test compound was incubated with 247.5 uL of cryopreserved hepatocytes suspended in serum-free incubation medium at 5×10^5 viable cells/mL. The mixture was incubated at 37° C. and shaken at 500 rpm for the designated time points (0.5, 15, 30, 60, 90, or 120 min). At each time point, 25 μL aliquot of incubation mixture was transferred to 125 μL of cold acetonitrile containing internal standard, followed by centrifugation for 30 min at 3,220 g. 100 μL of supernatant was mixed with 100 μL of distilled water for analysis by LC-MS/MS. Peak areas were determined from extracted ion chromatograms and in vitro half-life (t1/2) was determined from the concentration vs time regression slope, in vitro t1/2=0.693/k. Conversion of the in vitro t1/2 (in min) into the in vitro intrinsic clearance (in vitro CLint, in μL/min/10^6 cells) is done using: in vitro CLint=kV/N.

[4] = type: in vitro ADME, human; conditions: prodrug remaining, 5 μM, 37° C.
Method: (§3) Each test was carried out in duplicate for each time point; 0 min, 15 min, 30 min, 60 min, 120, 240 min. […]

[5] = type: in vitro ADME, mouse; conditions: prodrug remaining, 5 μM, 37° C.
Method: as §3

[6] = Hydrolysis Assay - Condition 2 (DI Water); type: physicochemical; conditions: 25° C., 0.5 mM
Method: 50 μL of compound (10 mM) in DMSO was diluted into 950 μL of DI water to a final concentration of 0.5 mM. The hydrolysis kinetics were conducted at 25° C. and measured by LCMS at a certain time interval.
as §1, §2

[7] = male, C57BL/6, mouse, in vivo, 323 in brain after 323 IV 2 mg/kg
[8] = male, C57BL/6, mouse, in vivo, 323 in plasma after 323 IV 2 mg/kg
[9] = male, C57BL/6, mouse, in vivo, 323 after 323 IV 2 mg/kg, read-out: Brain concentrations (mean)
[10] = male, C57BL/6, mouse, in vivo, 323 after 323 IV 2 mg/kg, read-out: Plasma concentrations (mean)

COc1ccc([C@@]23CCC(OP4(=O)OCC(C)(C)CO4)=C[C@@H]2N(C)CC3)cc1OC [Compound 323, 2-[[(3aS,7aS)-3a-(3,4-dimethoxyphenyl)-1-methyl-3,4,5,7a-tetrahydro-2H-indol-6-yl]oxy]-5,5-dimethyl-1,3,2λ^5-dioxaphosphinane 2-oxide]
Rat Plasma Prodrug (%) ([1]; 0 min): 100.00% | Rat Plasma Prodrug (%) ([1]; 10 min): >99% | Rat Plasma Prodrug (%) ([1]; 30 min): 95.5% | Rat Plasma Prodrug (%) ([1]; 60 min): 82.0% | Rat Plasma Prodrug (%) ([1]; 120 min): 58.8% | Rat Plasma Prodrug (%) ([1]; 240 min): 34.0% | brain concentrations quantifiable up to (in vivo; 323 after 323 IV 2 mg/kg): ≤ 0.5 h | plasma concentrations quantifiable up to (in vivo; 323 after 323 IV 2 mg/kg): up to 2 h | AUClast (in vivo; 323 in brain after 323 IV 2 mg/kg): 6.56 ng·h/g | half-life (in vivo; [7]): 10.8 min | C0 (in vivo; [7]): 33.9 ng/mL | clearance (in vivo; [7]): 4350 mL/min/kg | Vd (in vivo; [7]): 61.7 L/kg | half-life (in vivo; [8]): 10.2 min | C0 (in vivo; [8]): 609 ng/mL | clearance (in vivo; [8]): 344 mL/min/kg | Vd (in vivo; [8]): 3.25 L/kg | concentration at 0.08 h (in vivo; [9]): 22.1 ng/g | concentration at 0.08 h (in vivo; [10]): 332 ng/mL | concentration at 0.25 h (in vivo; [9]): 8.97 ng/g | concentration at 0.25 h (in vivo; [10]): 91.6 ng/mL | concentration at 0.5 h (in vivo; male, C57BL/6, mouse, in vivo, 323 after 323 IV 2 mg/kg, average of two values, read-out: Brain concentrations (mean)): 4.43 ng/g | concentration at 0.5 h (in vivo; [10]): 26.3 ng/mL | concentration at 1 h (in vivo; male, C57BL/6, mouse, in vivo, 323 after 323 IV 2 mg/kg, 1 h, read-out: Plasma concentrations (mean)): 4.05 ng/mL | concentration at 2 h (in vivo; male, C57BL/6, mouse, in vivo, 323 after 323 IV 2 mg/kg, 2 h, single value, excluded from data analysis, read-out: Plasma concentrations (mean)): 1.03 ng/mL | Kp (in vivo; male, C57BL/6, mouse, in vivo, 323 after 323 IV 2 mg/kg, read-out: Brain-Kp): 0.07 | AUC(0-t) (in vivo; [8]): 96 ng·h/mL | Condition 1 Conversion (%) ([2]; 1 min): 0% | Condition 1 Conversion (%) ([2]; 5 min): 0% | Condition 1 Conversion (%) ([2]; 30 min): 0% | Condition 1 Conversion (%) ([2]; 1 h): 0% | Condition 1 Conversion (%) ([2]; 4 h): 0% | Condition 1 Conversion (%) ([2]; 24 h): 0% | pIC50 (SERT): 7.20 | half-life at 1 μM [3]: 327 min | hepatocyte CLint at 1 μM [3]: 4.2 µL/min/1e6 cells | Human Plasma Prodrug (%) ([4]; 0 min): 100% | Human Plasma Prodrug (%) ([4]; 15 min): 76.6% | Human Plasma Prodrug (%) ([4]; 30 min): 64.5% | Human Plasma Prodrug (%) ([4]; 60 min): 38.1% | Human Plasma Prodrug (%) ([4]; 120 min): 12.8% | Human Plasma Prodrug (%) ([4]; 240 min): 1.60% | Mouse Plasma Prodrug (%) ([5]; 0 min): 100.0% | Mouse Plasma Prodrug (%) ([5]; 15 min): >99% | Mouse Plasma Prodrug (%) ([5]; 30 min): >99% | Mouse Plasma Prodrug (%) ([5]; 60 min): 94.1% | Mouse Plasma Prodrug (%) ([5]; 120 min): 71.9% | Mouse Plasma Prodrug (%) ([5]; 240 min): 50.3% | Condition 2 Conversion (%) ([6]; 1 min): 0% | Condition 2 Conversion (%) ([6]; 5 min): 0% | Condition 2 Conversion (%) ([6]; 30 min): 0% | Condition 2 Conversion (%) ([6]; 1 h): 0% | Condition 2 Conversion (%) ([6]; 4 h): 0% | Condition 2 Conversion (%) ([6]; 24 h): 0%
